According to the supplement of paper PMC13207355:

Tests used:
Details in all cases: exposure time: 72 h
[1] = tested on: E21 (patient-derived glioblastoma stem cells of mesenchymal subtype); experiment: surviving fraction (nuclei count normalised to DMSO); higher = more cells surviving (less toxic)
[2] = tested on: FT3469 (normal neural stem cell line); experiment: as above
[3] = tested on: E34 (patient-derived glioblastoma stem cells of proneural subtype); experiment: as above
[4] = tested on: E28 (patient-derived glioblastoma stem cells of classical subtype); experiment: as above
[5] = tested on: E13 (patient-derived glioblastoma stem cells of classical subtype); experiment: as above
[6] = tested on: E57 (patient-derived glioblastoma stem cells of mesenchymal subtype); experiment: as above
[7] = tested on: E21; experiment: phenotypic distance (Euclidean, principal components) from DMSO controls (arbitrary units); higher = stronger morphological change
[8] = tested on: FT3469; experiment: as above
[9] = tested on: E34; experiment: as above
[10] = tested on: E28; experiment: as above
[11] = tested on: E13; experiment: as above
[12] = tested on: E57; experiment: as above
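For phenotypic distance (Euclidean, principal components) from DMSO controls in this document: cell Painting imaging in 384-well plates, CellProfiler features reduced to at least 20 principal components, Euclidean distance versus same-plate DMSO vehicle wells (0.1% v/v), median over six images per well.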
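For surviving fraction (nuclei count normalised to DMSO) in this document: nuclei counted by high-content imaging of Hoechst-stained cells in laminin-coated 384-well plates, relative to 0.1% DMSO vehicle wells, with staurosporine as cell-death control.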

CCn1cc(-c2ccnc3[nH]c(-c4cccc(CN(C)C)c4)cc23)c(-c2ccc(NC(=O)N(C)C)cc2)n1
Details | phenotypic distance | surviving fraction
[1], 4.1 nM | – | 0.418
[1], 12.3 nM | – | 0.428
[1], 37 nM | – | 0.442
[1], 111.1 nM | – | 0.449
[1], 333.3 nM | – | 0.359
[1], 1000 nM | – | 0.4316
[1], 3000 nM | – | 0.314
[2], 4.1 nM | – | 0.759
[2], 12.3 nM | – | 0.76
[2], 37 nM | – | 0.788
[2], 111.1 nM | – | 0.844
[2], 333.3 nM | – | 0.708
[2], 1000 nM | – | 0.729
[2], 3000 nM | – | 0.591
[3], 4.1 nM | – | 0.664
[3], 12.3 nM | – | 0.622
[3], 37 nM | – | 0.787
[3], 111.1 nM | – | 0.815
[3], 333.3 nM | – | 0.842
[3], 1000 nM | – | 0.8037
[3], 3000 nM | – | 0.673
[4], 4.1 nM | – | 0.639
[4], 12.3 nM | – | 0.603
[4], 37 nM | – | 0.542
[4], 111.1 nM | – | 0.5559
[4], 333.3 nM | – | 0.549
[4], 1000 nM | – | 0.53
[4], 3000 nM | – | 0.397
[5], 4.1 nM | – | 0.468
[5], 12.3 nM | – | 0.437
[5], 37 nM | – | 0.458
[5], 111.1 nM | – | 0.46
[5], 333.3 nM | – | 0.49
[5], 1000 nM | – | 0.456
[5], 3000 nM | – | 0.439
[6], 4.1 nM | – | 0.385
[6], 12.3 nM | – | 0.338
[6], 37 nM | – | 0.287
[6], 111.1 nM | – | 0.325
[6], 333.3 nM | – | 0.306
[6], 1000 nM | – | 0.314
[6], 3000 nM | – | 0.221
[7], 4.1 nM | 4.9 | –
[7], 12.3 nM | 5.1 | –
[7], 37 nM | 5.06 | –
[7], 111.1 nM | 5.32 | –
[7], 333.3 nM | 5.21 | –
[7], 1000 nM | 4.91 | –
[7], 3000 nM | 5.07 | –
[8], 4.1 nM | 1.96 | –
[8], 12.3 nM | 2.32 | –
[8], 37 nM | 2 | –
[8], 111.1 nM | 2.07 | –
[8], 333.3 nM | 2.13 | –
[8], 1000 nM | 2.98 | –
[8], 3000 nM | 2.08 | –
[9], 4.1 nM | 2.75 | –
[9], 12.3 nM | 2.68 | –
[9], 37 nM | 2.46 | –
[9], 111.1 nM | 2.4 | –
[9], 333.3 nM | 2.43 | –
[9], 1000 nM | 2.62 | –
[9], 3000 nM | 1.93 | –
[10], 4.1 nM | 2.81 | –
[10], 12.3 nM | 2.81 | –
[10], 37 nM | 2.55 | –
[10], 111.1 nM | 2.69 | –
[10], 333.3 nM | 2.57 | –
[10], 1000 nM | 2.83 | –
[10], 3000 nM | 2.95 | –
[11], 4.1 nM | 4.52 | –
[11], 12.3 nM | 4.8 | –
[11], 37 nM | 4.56 | –
[11], 111.1 nM | 5.0354 | –
[11], 333.3 nM | 4.64 | –
[11], 1000 nM | 4.84 | –
[11], 3000 nM | 3.74 | –
[12], 4.1 nM | 4.79 | –
[12], 12.3 nM | 4.9 | –
[12], 37 nM | 6.03 | –
[12], 111.1 nM | 5.9 | –
[12], 333.3 nM | 6.027 | –
[12], 1000 nM | 5.9 | –
[12], 3000 nM | 5.4 | –

C[C@H](NC(=O)[C@@H](O)c1cc(F)cc(F)c1)C(=O)N[C@@H]1C(=O)N(C)c2ccccc2-c2ccccc21
Details | phenotypic distance | surviving fraction
[1], 4.1 nM | – | 0.89
[1], 12.3 nM | – | 0.9941
[1], 37 nM | – | 0.938
[1], 111.1 nM | – | 0.902
[1], 333.3 nM | – | 0.872
[1], 1000 nM | – | 0.883
[1], 3000 nM | – | 0.898
[2], 4.1 nM | – | 0.89
[2], 12.3 nM | – | 0.882
[2], 37 nM | – | 0.89
[2], 111.1 nM | – | 0.906
[2], 333.3 nM | – | 0.896
[2], 1000 nM | – | 0.875
[2], 3000 nM | – | 0.828
[3], 4.1 nM | – | 0.841
[3], 12.3 nM | – | 0.811
[3], 37 nM | – | 0.801
[3], 111.1 nM | – | 0.907
[3], 333.3 nM | – | 0.862
[3], 1000 nM | – | 0.775
[3], 3000 nM | – | 0.875
[4], 4.1 nM | – | 0.852
[4], 12.3 nM | – | 0.866
[4], 37 nM | – | 0.942
[4], 111.1 nM | – | 0.918
[4], 333.3 nM | – | 0.925
[4], 1000 nM | – | 0.835
[4], 3000 nM | – | 0.891
[5], 4.1 nM | – | 1.02
[5], 12.3 nM | – | 1.075
[5], 37 nM | – | 1.02
[5], 111.1 nM | – | 1.03
[5], 333.3 nM | – | 1.08
[5], 1000 nM | – | 1.07
[5], 3000 nM | – | 0.995
[6], 4.1 nM | – | 0.906
[6], 12.3 nM | – | 0.947
[6], 37 nM | – | 0.939
[6], 111.1 nM | – | 0.922
[6], 333.3 nM | – | 0.9779
[6], 1000 nM | – | 0.943
[6], 3000 nM | – | 0.931
[7], 4.1 nM | 0.769 | –
[7], 12.3 nM | 2.05 | –
[7], 37 nM | 1.5 | –
[7], 111.1 nM | 0.896 | –
[7], 333.3 nM | 3.99 | –
[7], 1000 nM | 1.02 | –
[7], 3000 nM | 1.01 | –
[8], 4.1 nM | 1.01 | –
[8], 12.3 nM | 0.677 | –
[8], 37 nM | 0.997 | –
[8], 111.1 nM | 0.721 | –
[8], 333.3 nM | 1.08 | –
[8], 1000 nM | 0.977 | –
[8], 3000 nM | 0.991 | –
[9], 4.1 nM | 1.26 | –
[9], 12.3 nM | 0.926 | –
[9], 37 nM | 1.15 | –
[9], 111.1 nM | 1.04 | –
[9], 333.3 nM | 1.01 | –
[9], 1000 nM | 1.24 | –
[9], 3000 nM | 1.49 | –
[10], 4.1 nM | 0.845 | –
[10], 12.3 nM | 0.88 | –
[10], 37 nM | 0.919 | –
[10], 111.1 nM | 0.756 | –
[10], 333.3 nM | 0.96 | –
[10], 1000 nM | 1.03 | –
[10], 3000 nM | 1.13 | –
[11], 4.1 nM | 0.77 | –
[11], 12.3 nM | 0.711 | –
[11], 37 nM | 0.622 | –
[11], 111.1 nM | 0.7795 | –
[11], 333.3 nM | 0.785 | –
[11], 1000 nM | 0.723 | –
[11], 3000 nM | 0.862 | –
[12], 4.1 nM | 1.25 | –
[12], 12.3 nM | 1.21 | –
[12], 37 nM | 1.87 | –
[12], 111.1 nM | 1.2 | –
[12], 333.3 nM | 1.284 | –
[12], 1000 nM | 1.34 | –
[12], 3000 nM | 1.43 | –
